Measurements as given in US8889707B2, “Treatment of addiction” (priority 2012, dated 2014).

Tested on: Male Sprague-Dawley rats trained for cocaine-CPP
Assay: Cocaine-CPP memory retrieval test, PJ-34 infused before testing
Format: in vivo, rat
Conditions: intra-CeA infusion, p<0.01

## CN(C)CC(=O)Nc1ccc2[nH]c(=O)c3ccccc3c2c1.Cl [PJ-34, N-(6-Oxo-5,6-dihydrophenanthridin-2-yl)-(N,N-dimethylamino)acetamide hydrochloride]
50 microM, 1.2 microl, tested 30 min after infusion, vs vehicle, FIG. 4A
  Preference for the cocaine compartment: abolished
Test 24 hours later
  Abolished preference for the cocaine compartment in post-conditioning test: persisted
Test 7 days later
  Abolished preference for the cocaine compartment in post-conditioning test: persisted
Test 14 days later
  Abolished preference for the cocaine compartment in post-conditioning test: persisted
